Experimental data: patent US4469692A, “Spiro derivatives of the pyrazolo [1,5-d] [1,2,4] triazine ring system and a process for the preparation thereof” (Alkaloida Vegyeszeti Gyar, priority 1981, dated 1984)
“Also recorded” adds a separate entry of the source.

Columns and labels:
mice [1] = test: Hypnotic effect in mice (method of Janssen et al.); format: in vivo; conditions: for minimal effective dose / ED50: Mus musculus, iv; for minimal effective dose: 0.05 h, read-out: Hmin (minimal hypnotic dose inducing sleep in all animals for a period exceeding 3 minutes); for minimal effective dose / Mean duration of sleep: i.v.; for ED50: read-out: HD50 (dose inducing sleep in 50 percent of the animals)
Description: (§1) The hypnotic activity is measured by the method of Janssen et al. (J. Med. Chem. 8, 220/1965/). Ketalar/2-(2-chlorophenyl)-2-methyl-amino-cyclohexanone/ and Hexobarbital (5-methyl-5-hexenyl-barbituric acid) were applied as reference compounds.

rats = test: Hypnotic effect in rats (method of Janssen et al.); format: in vivo; conditions: for ED50: Rattus norvegicus, iv, read-out: HD50 (the source's name); for Mean duration of sleep: i.v., in the case of dose HD50
Description: as §1

rabbits = test: Hypnotic effect in rabbits (method of Janssen et al.); format: in vivo; conditions: for minimal effective dose: Oryctolagus cuniculus, iv, read-out: Hmin; for Mean duration of sleep: i.v., in the case of dose Hmin
Description: as §1

[2] = Postnarcotic period following awakening and adverse effects; format: in vivo; conditions: postnarcotic period following awakening
[3] = Acute toxicity (LD50) in mice; conditions: mouse, in vivo, iv
mice [4] = test: Acute toxicity (LD50) in mice; conditions: mice, Tables 1 and 2
[5] = Acute toxicity (LD50) in rats; conditions: rat, in vivo, iv
[6] = Acute toxicity (LD50, lethality) in rabbits; conditions: rabbit, in vivo; for LD50: iv, LD50, rabbits

Q: For `Cc1cc2n(n1)C1(CCCCC1)N(C)N(C)C2=O` [Example 5, Spiro[cyclohexane-1,7'-/6,7-dihydro-2,5,6-trimethylpyrazolo[1,5-d][1,2,4]triazin-4(5H)-one/]], which minimal effective dose (mice [1]) is on record?
A: 25 mg/kg

Q: And the ED50 (mice [1])?
A: 17.5 mg/kg

Q: What about the “hypnotic effect compared with Hexobarbital and Ketalar” value (mice [1]; Tables 1 and 2, listed as compound of the invention) of the same compound?
A: superior to that of Hexobarbital; also recorded: in the same range as that of Ketalar

Q: And the “Mean duration of sleep” value (mice [1]; in the case of dose HD50)?
A: 2.8 min

Q: What about the “Mean duration of sleep” value (mice [1]; in the case of dose Hmin) of the same compound?
A: 6.75 min

Q: What about the ED50 (rats) of the same compound?
A: 16 mg/kg

Q: What about the “therapeutic index compared with reference substances” value (rats; Table 3) of the same compound?
A: more advantageous in both instances

Q: What about the “Mean duration of sleep” value (rats) of the same compound?
A: 1.5 min

Q: What about the minimal effective dose (rabbits) of the same compound?
A: 25 mg/kg

Q: And the “Mean duration of sleep” value (rabbits)?
A: 6 min

Q: And the “adverse effects of the postnarcotic period” value [2]?
A: devoid of any adverse effects

Q: What about the LD50 [3] of the same compound?
A: 192 mg/kg

Q: What about the “toxicity compared with reference substances” value (mice [4]) of the same compound?
A: substantially lower than that of any of the above reference substances

Q: And the LD50 [5]?
A: 275 mg/kg

Q: What about the LD50 [6] of the same compound?
A: ~325 mg/kg

Q: For `CN1C(=O)NC(=O)C(C)(C2=CCCCC2)C1=O` (stereo not drawn) [Hexobarbital, 5-methyl-5-hexenyl-barbituric acid], which minimal effective dose (mice [1]) is on record?
A: 45 mg/kg

Q: What about the ED50 (mice [1]) of the same compound?
A: 25 mg/kg

Q: What about the “Mean duration of sleep” value (mice [1]; at a dose of 40 mg/kg) of the same compound?
A: 2.6 min

Q: And the “Mean duration of sleep” value (mice [1]; in the case of dose HD50)?
A: 4.1 min

Q: And the “Mean duration of sleep” value (mice [1]; in the case of dose Hmin)?
A: 7.2 min

Q: And the ED50 (rats)?
A: 17.5 mg/kg

Q: And the “Mean duration of sleep” value (rats)?
A: 4.45 min

Q: And the LD50 [3]?
A: 118 mg/kg

Q: What about the LD50 [5] of the same compound?
A: 125 mg/kg

Q: For `CNC1(c2ccccc2Cl)CCCCC1=O` (stereo not drawn) [Ketalar, 2-(2-chlorophenyl)-2-methyl-amino-cyclohexanone], which minimal effective dose (mice [1]) is on record?
A: 25 mg/kg

Q: What about the ED50 (mice [1]) of the same compound?
A: 14.5 mg/kg

Q: What about the “Mean duration of sleep” value (mice [1]; in the case of dose HD50) of the same compound?
A: 1.7 min

Q: What about the “Mean duration of sleep” value (mice [1]; in the case of dose Hmin) of the same compound?
A: 5.0 min

Q: And the ED50 (rats)?
A: 8 mg/kg

Q: What about the “Mean duration of sleep” value (rats) of the same compound?
A: 1.9 min

Q: And the minimal effective dose (rabbits)?
A: 25 mg/kg

Q: And the “Mean duration of sleep” value (rabbits)?
A: 14 min

Q: What about the LD50 [3] of the same compound?
A: 62 mg/kg

Q: And the LD50 [5]?
A: 39.4 mg/kg

Q: And the mortality ([6]; 50 mg/kg)?
A: 80%

Q: What about the LD50 [6] of the same compound?
A: < 50 mg/kg
